Measurements: PubChem BioAssay AID248 (DTP/NCI, 2004)
Values joined by “and” are separate entries in the source; they are usually repeats but may differ in a detail not shown here. Identical values can stand only once. Toxic doses and inconclusive results are not listed. Cut-off read from the data, not from the text of the source: active = T/C of 150% or more; inactive = T/C below 125%.

System: L1210 leukemia ip in BDF1 mice, survival T/C
Test: NCI In Vivo Anticancer Drug Screen. Data for tumor model L1210 Leukemia (intraperitoneal) in B6D2F1 (BDF1) mice
Conditions: endpoint: mean survival time, higher = longer survival
Outline: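 Survival endpoint. Drug-treated group vs vehicle group, expressed as T divided by C. Tumor passaged by transplantation.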

[1] = dose: 12.5 mg/kg/injection, schedule: Q01DX009 (ip), vehicle: saline
[2] = dose: 100.0 mg/kg/injection, schedule: Q01DX009 (ip), vehicle: Klucel (hydroxypropylcellulose) (HPC)
[3] = dose: 200.0 mg/kg/injection, schedule: Q01DX009 (ip), vehicle: Klucel (hydroxypropylcellulose) (HPC)
[4] = dose: 50.0 mg/kg/injection, schedule: Q01DX001 (ip), vehicle: saline
[5] = dose: 100.0 mg/kg/injection, schedule: Q01DX001 (ip), vehicle: saline
[6] = dose: 200.0 mg/kg/injection, schedule: Q01DX001 (ip), vehicle: saline
[7] = dose: 400.0 mg/kg/injection, schedule: Q01DX001 (ip), vehicle: saline
[8] = dose: 100.0 mg/kg/injection, schedule: Q01DX001 (ip), vehicle: carboxymethylcellulose (CMC)
[9] = dose: 200.0 mg/kg/injection, schedule: Q01DX001 (ip), vehicle: carboxymethylcellulose (CMC)
[10] = dose: 400.0 mg/kg/injection, schedule: Q01DX001 (ip), vehicle: carboxymethylcellulose (CMC)

Measured: T/C

CC1(C)c2ccccc2C(=O)C1Cc1ccccc1 (stereo unspecified)
inactive: dose: 100.0 mg/kg/injection, schedule: Q01DX009 (ip), vehicle: saline 102 % of control | dose: 100.0 mg/kg/injection, schedule: Q04DX003 (ip), vehicle: saline 107 % of control | dose: 200.0 mg/kg/injection, schedule: Q01DX009 (ip), vehicle: saline 101 % of control | dose: 200.0 mg/kg/injection, schedule: Q04DX003 (ip), vehicle: saline 104 % of control | dose: 400.0 mg/kg/injection, schedule: Q01DX009 (ip), vehicle: saline 98 % of control | dose: 400.0 mg/kg/injection, schedule: Q04DX003 (ip), vehicle: saline 96 % of control

S=P(N1CC1)(N1CC1)N1CC1.[Cl-].[Cl-].[NH2-].[NH2-].[Pt+4]
inactive: dose: 1.8 mg/kg/injection, schedule: Q01DX009 (ip), vehicle: saline 111 % of control and 103 % of control and 101 % of control | dose: 2.7 mg/kg/injection, schedule: Q01DX009 (ip), vehicle: saline 111 % of control and 116 % of control | dose: 12.5 mg/kg/injection, schedule: Q01DX009 (ip), vehicle: Klucel (hydroxypropylcellulose) (HPC) 105 % of control and 92 % of control and 91 % of control | [1] 98 % of control and 103 % of control
active: dose: 3.13 mg/kg/injection, schedule: Q01DX009 (ip), vehicle: Klucel (hydroxypropylcellulose) (HPC) 150 % of control and 152 % of control | dose: 4.1 mg/kg/injection, schedule: Q01DX009 (ip), vehicle: saline 164 % of control [middle of 5 runs] | dose: 6.25 mg/kg/injection, schedule: Q01DX009 (ip), vehicle: Klucel (hydroxypropylcellulose) (HPC) 211 % of control and 166 % of control and 227 % of control | dose: 6.25 mg/kg/injection, schedule: Q01DX009 (ip), vehicle: saline 233 % of control [middle of 4 runs] | dose: 9.3 mg/kg/injection, schedule: Q01DX009 (ip), vehicle: saline 200 % of control and 277 % of control

CCc1c(C=O)[nH]c(=S)n(C)c1=O
inactive: dose: 100.0 mg/kg/injection, schedule: Q01DX001 (ip), vehicle: Klucel (hydroxypropylcellulose) (HPC) 104 % of control | [2] 108 % of control | dose: 200.0 mg/kg/injection, schedule: Q01DX001 (ip), vehicle: Klucel (hydroxypropylcellulose) (HPC) 98 % of control | [3] 88 % of control | dose: 400.0 mg/kg/injection, schedule: Q01DX001 (ip), vehicle: Klucel (hydroxypropylcellulose) (HPC) 101 % of control | dose: 400.0 mg/kg/injection, schedule: Q01DX009 (ip), vehicle: Klucel (hydroxypropylcellulose) (HPC) 98 % of control

CSc1ccc([PH+](c2ccc(SC)cc2)c2ccc(SC)cc2)cc1.CSc1ccc([PH+](c2ccc(SC)cc2)c2ccc(SC)cc2)cc1.[Cl][Hg][Cl]
inactive: dose: 50.0 mg/kg/injection, schedule: Q01DX009 (ip), vehicle: Klucel (hydroxypropylcellulose) (HPC) 89 % of control | [2] 92 % of control and 98 % of control | [3] 94 % of control and 103 % of control

O=C(NC(Cc1ccccc1)C(=O)NCCCCCCCCCCNC(=O)C(Cc1ccccc1)NC(=O)OCc1ccccc1)OCc1ccccc1 (stereo unspecified)
inactive: [4] 92 % of control | [5] 98 % of control | [6] 110 % of control | [7] 104 % of control

NC(=S)N/N=C/c1[nH]c(=O)[nH]c(=O)c1Br
inactive: dose: 100.0 mg/kg/injection, schedule: Q01DX001 (ip), vehicle: saline with Tween-80 93 % of control | dose: 200.0 mg/kg/injection, schedule: Q01DX001 (ip), vehicle: saline with Tween-80 97 % of control | dose: 400.0 mg/kg/injection, schedule: Q01DX001 (ip), vehicle: saline with Tween-80 103 % of control

O=C(N/N=C\c1ccccc1O)c1ccco1
inactive: [8] 98 % of control | [9] 95 % of control | [10] 95 % of control

CC(CO)(CO)N=Cc1cccc([N+](=O)[O-])c1
inactive: dose: 50.0 mg/kg/injection, schedule: Q01DX001 (ip), vehicle: carboxymethylcellulose (CMC) 103 % of control | [8] 103 % of control | [9] 103 % of control | [10] 97 % of control

O=C(NC1CCCCC1)c1csnn1
inactive: dose: 75.0 mg/kg/injection, schedule: Q01DX001 (ip), vehicle: other 89 % of control | dose: 150.0 mg/kg/injection, schedule: Q01DX001 (ip), vehicle: other 97 % of control

CCN(CC)C(=S)[S][Sn]([S]C(=S)N(CC)CC)([c]1ccccc1)[c]1ccccc1
inactive: dose: 100.0 mg/kg/injection, schedule: Q01DX001 (ip), vehicle: other 97 % of control | dose: 200.0 mg/kg/injection, schedule: Q01DX001 (ip), vehicle: other 104 % of control | dose: 400.0 mg/kg/injection, schedule: Q01DX001 (ip), vehicle: other 112 % of control

Nc1ccc(/C=C2\C=Cc3ccccc32)cc1
inactive: dose: 8.5 mg/kg/injection, schedule: Q01DX009 (ip), vehicle: saline 98 % of control | dose: 17.0 mg/kg/injection, schedule: Q01DX001 (ip), vehicle: acetone 98 % of control | dose: 17.0 mg/kg/injection, schedule: Q01DX009 (ip), vehicle: saline 97 % of control | dose: 35.0 mg/kg/injection, schedule: Q01DX001 (ip), vehicle: acetone 105 % of control | dose: 35.0 mg/kg/injection, schedule: Q01DX009 (ip), vehicle: saline 101 % of control | dose: 100.0 mg/kg/injection, schedule: Q01DX001 (ip), vehicle: olive oil, sesame oil, peanut oil 94 % of control

CC12CCCC([N+](=O)[O-])(C1)NC(=O)C2C#N (stereo unspecified)
inactive: [5] 105 % of control | [6] 106 % of control | [7] 101 % of control

COc1ccc(CC(=O)NCCc2ccc3c(c2)OCO3)cc1OC
inactive: dose: 50.0 mg/kg/injection, schedule: Q01DX009 (ip), vehicle: saline with Tween-80 89 % of control | dose: 100.0 mg/kg/injection, schedule: Q01DX009 (ip), vehicle: saline with Tween-80 91 % of control | dose: 100.0 mg/kg/injection, schedule: Q04DX003 (ip), vehicle: saline with Tween-80 92 % of control | dose: 200.0 mg/kg/injection, schedule: Q01DX009 (ip), vehicle: saline with Tween-80 92 % of control | dose: 200.0 mg/kg/injection, schedule: Q04DX003 (ip), vehicle: saline with Tween-80 96 % of control

COC1OC(CI)C(OC(C)=O)C(OC(C)=O)C1OC(C)=O (stereo unspecified)
inactive: dose: 50.0 mg/kg/injection, schedule: Q04DX002 (ip), vehicle: Klucel (hydroxypropylcellulose) (HPC) 94 % of control | dose: 100.0 mg/kg/injection, schedule: Q04DX002 (ip), vehicle: Klucel (hydroxypropylcellulose) (HPC) 94 % of control | dose: 200.0 mg/kg/injection, schedule: Q04DX002 (ip), vehicle: Klucel (hydroxypropylcellulose) (HPC) 97 % of control

CC(=Nc1ccc(Cl)cc1)Nc1ccc(Cl)cc1
inactive: dose: 62.5 mg/kg/injection, schedule: Q01DX009 (ip), vehicle: Klucel (hydroxypropylcellulose) (HPC) 92 % of control | dose: 125.0 mg/kg/injection, schedule: Q01DX009 (ip), vehicle: Klucel (hydroxypropylcellulose) (HPC) 96 % of control | dose: 250.0 mg/kg/injection, schedule: Q01DX009 (ip), vehicle: Klucel (hydroxypropylcellulose) (HPC) 100 % of control

COc1cc2ccnc(/C=N\NC(N)=S)c2cc1OC
inactive: [4] 93 % of control | [5] 98 % of control | [6] 93 % of control

O=C(CCl)NP(=O)(O)O
inactive: dose: 25.0 mg/kg/injection, schedule: Q04DX002 (ip), vehicle: saline 97 % of control | dose: 50.0 mg/kg/injection, schedule: Q04DX002 (ip), vehicle: saline 102 % of control | dose: 100.0 mg/kg/injection, schedule: Q04DX002 (ip), vehicle: saline 102 % of control

COCCOC(C)C(/C=N/NC(N)=S)=N/NC(N)=S (stereo unspecified)
inactive: [4] 100 % of control | [5] 100 % of control | [6] 93 % of control | [7] 97 % of control

CCCCOCCN
inactive: [1] 104 % of control | dose: 25.0 mg/kg/injection, schedule: Q01DX009 (ip), vehicle: saline 101 % of control | dose: 50.0 mg/kg/injection, schedule: Q01DX009 (ip), vehicle: saline 106 % of control

C[C@]12CC[C@H]3[C@@H](CC[C@]4(O)C[C@@H](O)CC[C@]34C=O)[C@@]1(O)CC[C@@H]2c1ccc(=O)oc1
inactive: dose: 5.0 mg/kg/injection, schedule: Q01DX001 (ip), vehicle: saline 96 % of control | dose: 10.0 mg/kg/injection, schedule: Q01DX001 (ip), vehicle: saline 95 % of control | dose: 20.0 mg/kg/injection, schedule: Q01DX001 (ip), vehicle: saline 104 % of control | dose: 40.0 mg/kg/injection, schedule: Q01DX001 (ip), vehicle: saline 98 % of control | dose: 80.0 mg/kg/injection, schedule: Q01DX001 (ip), vehicle: saline 95 % of control
